# Source: patent US9603820B2, “Ornithine aminotransferase inhibition with GABA analogues for treatment of hepatocellular carcinoma” (Northwestern University, priority 2014, dated 2017)
# What was measured:
# [1] = biological target: T1, ornithine aminotransferase (OAT) (Homo sapiens, UniProt P04181); test: Continuous coupled OAT assay (PYCR1/NADH), inhibition of OAT; format: biochemical; settings: FIG. 2
# T1 sequence (P04181 36-439 limits assumed): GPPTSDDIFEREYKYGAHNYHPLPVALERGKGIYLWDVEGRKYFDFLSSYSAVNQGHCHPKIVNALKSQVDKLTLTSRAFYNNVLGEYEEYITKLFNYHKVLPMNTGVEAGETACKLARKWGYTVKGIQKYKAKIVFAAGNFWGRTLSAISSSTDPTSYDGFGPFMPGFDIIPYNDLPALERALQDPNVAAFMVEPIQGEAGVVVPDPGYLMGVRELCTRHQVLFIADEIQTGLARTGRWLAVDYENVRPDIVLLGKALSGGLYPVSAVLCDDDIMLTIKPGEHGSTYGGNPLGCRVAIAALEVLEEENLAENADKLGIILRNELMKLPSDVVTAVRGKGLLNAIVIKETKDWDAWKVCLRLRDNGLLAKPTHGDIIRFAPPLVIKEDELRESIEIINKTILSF
# Description: With these two assays in hand, the activity of a variety of compounds made previously as potential inhibitors of GABA-AT were investigated.
# [2] = biological target: T1, ornithine aminotransferase (OAT); test: Time-dependent inactivation of OAT and dialysis of the inactivated enzyme; format: biochemical; settings: no activity returned upon dialysis for 48 h
# Procedure: OAT activity assays were carried out using as follows.
# OAT incubated without the inactivator serves as a control. After 24 h, the enzyme solutions are transferred to a D-Tube™ Mini dialyzer and exhaustively dialyzed against the buffer (100 mM pyrophosphate buffer containing 0.1 mM alpha-ketoglutarate and 0.1 mM PLP, pH 8.0) at 4° C. protected from light. The dialysis buffer is exchanged three times every 4 h and left overnight. After 48 h of dialysis, the remaining OAT activity in each of the solutions is assayed.
# For the determination of KI and kinact values, the natural logarithm of the percentage of remaining OAT activity is plotted against the pre-incubation time at each inhibitor concentration to obtain the kobs (slope) value for each concentration. The kobs is the rate constant describing the inactivation at each inhibitor concentration. kobs is re-plotted against the inhibitor concentration using nonlinear regression analysis (Graph-Pad Prism 6; GraphPad Software Inc.). kinact and the KI were estimated from the equation below: […], where kinact is the maximal rate of inactivation, KI is the inhibitor concentration required for half-maximal inactivation, and [I] is the pre-incubation concentration of inhibitor. […] The initial rate constants for the inactivation at various concentrations of the two compounds are determined using nonlinear regression analysis.
# [3] = system: γ-aminobutyric acid aminotransferase (GABA-AT); test: Inhibition/inactivation of GABA-AT; format: biochemical; settings: even at 10 mM concentration
# Hep3B cells = test: Alpha-fetoprotein (AFP) secretion in HCC cells; format: cell-based, human; settings: Hep3B, data not shown
# HepG2 = test: Suppression of AFP levels in HCC cells; format: cell-based; settings: HepG2, data not shown
# Safety of 13 in mice = format: in vivo, C57Bl/6 mice; settings: 0.5-5 mg/kg, two doses on days 1 and 4, tested a week later; data not shown
structure (smiles),measurement,setting,value
COc1ccc(CN2C(=O)[C@H]3CC(=C(F)F)[C@@H]2C3)cc1 [Compound 13],Ki,[1],3000 nM
same,"inhibition of / binding to OAT, in words",[1],most potent inhibitor
same,efficiency/potency as time-dependent irreversible inhibitor (inactivator) of OAT,[2],most efficient
same,inhibition of GABA-AT,[3],does not inhibit GABA-AT
same,suppression of AFP levels / HCC tumor growth in vitro,Hep3B cells,profound suppression
same,suppression of AFP levels / HCC tumor growth in vitro,HepG2,profound suppression
same,"liver enzymes, weight, behavior, and fur look",Safety of 13 in mice,none of the tested doses were there any notable effects
